Experimental data taken from US5616563A, “Glutathione N-hydroxycarbamoyl thioesters and method of inhibiting neoplastic growth” (University of Maryland Baltimore Campus, priority 1994, dated 1997).

Assays:
[1] = tested on: Human Leukemia 60 (HL60) cells; experiment: Growth inhibition and kill of human leukemia 60 cells; type: cell-based; conditions: HL60, 72 hr. incubation; for IC50: Homo sapiens, HL-60, read-out: GI (concentration for 50% cell growth inhibition)
Description: The observation that compounds 2 and 6(c) inhibit tumor cell growth, but were not strongly cytotoxic to tumor cells at the concentrations tested, prompted the synthesis of diethyl esters of compounds 6(a), 6(b), and 6(c). These derivatives were then tested with human leukemia cells (HL60 cells) grown in RPMI/fetal calf serum medium at 37° C.
^c Concentration for 50% cell kill.

[2] = of substituent R; cited from earlier work
[3] = target: bovine liver glyoxalase II (Bos taurus, UniProt Q3B7M2); experiment: Substrate and inhibition studies with bovine liver glyoxalase II; conditions: for Vm (rel.): relative to Vm for S-D-lactoylglutathione
Description: The standard errors for Vm and Km were obtained by analysis of the initial rate data using the HYPER program of Cleland.
^a HEPES buffer (100 mM, pH 7.4), 25° C.
^b Listed values are relative to Vm for SD-lactoylglutathione.
^c Inhibition constants obtained from using the enediol analogs as

[4] = tested on: human erythrocytes; experiment: Erythrocyte uptake of 35S-labeled compounds
Description: In order to test the ability of human erythrocytes to take up the above enediol and its ethyl ester derivative, suspensions of washed human erythrocytes were separately incubated with [^35 S] GSH, [^35 S]S-(N-hydroxy N-methylcarbamoyl) glutathione, and with [^35 S] S-(N-hydroxy N-methylcarbamoyl) glutathione[glycyl]-O-ethyl ester. The tests were conducted with 50:50 (v:v) erythrocytes in PBS buffer at 37° C. in the presence of 8.5 mM extracellular [^35 S] labeled compounds.

[5] = HEPES buffer (100 mM, pH 7.4), 25° C.
[6] = 0 h, 8.5 mM extracellular, 37° C.

N[C@@H](CCC(=O)N[C@@H](CSC(=O)N(O)c1ccccc1)C(=O)NCC(=O)O)C(=O)O [Compound 6a, S-(N-Hydroxy N-Phenylcarbamoyl) Glutathione]
LC50 (concentration for 50% cell kill) [1]: > 1000 µM
TGI (concentration for total cell growth inhibition) [1]: > 1000 µM
IC50 [1]: ~100 µM
π (Hansch hydrophobicity constant) [2]: 2.13
Ki [3]: 11 ± 1.2 µM
Km ([3]; as substrate, HEPES buffer (100 mM, pH 7.4), 25° C.): 13 ± 2 µM
Vm (rel.) [3, 5]: (0.46 ± 0.01) × 10^-5

N[C@@H](CCC(=O)N[C@@H](CSC(=O)N(O)c1ccc(Cl)cc1)C(=O)NCC(=O)O)C(=O)O [Compound 6b, S-(N-Hydroxy-N-4-chlorophenylcarbamoyl) glutathione]
LC50 (concentration for 50% cell kill) [1]: > 1000 µM
TGI (concentration for total cell growth inhibition) [1]: > 1000 µM
IC50 [1]: ~100 µM
π (Hansch hydrophobicity constant) [2]: 3.04
Ki [3]: 3.4 ± 0.8 µM
Vm (rel.) [3, 5]: (1.5 ± 0.3) × 10^-5

CCOC(=O)CNC(=O)[C@H](CSC(=O)N(C)O)NC(=O)CC[C@H](N)C(=O)O [[^35 S] .box-solid., [^35 S] S-(N-Hydroxy N-Methyl Carbamoyl) Glutathione [Glycyl]-O-Ethyl Ester]
diffusion rate into erythrocytes relative to [35S] 2 [4]: ~ 2 fold
Extracellular Total 35S species ([4]; 0 h): 8.54 mM
Extracellular [35S] S-(N-hydroxy N-methylcarbamoyl) glutathione ([4]; 0 h): 1.27 mM
Extracellular [35S] S-(N-hydroxy N-methylcarbamoyl) glutathione glycyl-O-ethyl ester ([4]; 0 h): 7.22 mM
Intracellular Total 35S species [4, 6]: ~ 0.01 mM
Extracellular [35S] S-(N-hydroxy N-methylcarbamoyl) glutathione ([4]; 0 h, listed as [^35 S] 2(Et)): 1.3 mM
Extracellular Total 35S species ([4]; 6 h): 8.60 mM
Extracellular [35S] S-(N-hydroxy N-methylcarbamoyl) glutathione ([4]; 6 h): 1.27 mM
Extracellular [35S] S-(N-hydroxy N-methylcarbamoyl) glutathione glycyl-O-ethyl ester ([4]; 6 h): 7.17 mM
Intracellular Total 35S species ([4]; 6 h): 0.05 mM
Intracellular [35S] S-(N-hydroxy N-methylcarbamoyl) glutathione ([4]; 6 h): ~ 0.01 mM
Intracellular [35S] S-(N-hydroxy N-methylcarbamoyl) glutathione glycyl-O-ethyl ester ([4]; 6 h): ~ 0.01 mM
Extracellular Total 35S species ([4]; 12 h): 8.62 mM
Extracellular [35S] S-(N-hydroxy N-methylcarbamoyl) glutathione ([4]; 12 h): 1.42 mM
Extracellular [35S] S-(N-hydroxy N-methylcarbamoyl) glutathione glycyl-O-ethyl ester ([4]; 12 h): 7.02 mM
Intracellular Total 35S species ([4]; 12 h): 0.07 mM
Intracellular [35S] S-(N-hydroxy N-methylcarbamoyl) glutathione ([4]; 12 h): 0.02 mM
Intracellular [35S] S-(N-hydroxy N-methylcarbamoyl) glutathione glycyl-O-ethyl ester ([4]; 12 h): 0.03 mM
Extracellular Total 35S species ([4]; 24 h): 8.49 mM
Extracellular [35S] S-(N-hydroxy N-methylcarbamoyl) glutathione ([4]; 24 h): 1.65 mM
Extracellular [35S] S-(N-hydroxy N-methylcarbamoyl) glutathione glycyl-O-ethyl ester ([4]; 24 h): 6.62 mM
Intracellular Total 35S species ([4]; 24 h): 0.20 mM
Intracellular [35S] S-(N-hydroxy N-methylcarbamoyl) glutathione ([4]; 24 h): 0.05 mM
Intracellular [35S] S-(N-hydroxy N-methylcarbamoyl) glutathione glycyl-O-ethyl ester ([4]; 24 h): 0.12 mM
Extracellular Total 35S species ([4]; 36 h): 8.09 mM
Extracellular [35S] S-(N-hydroxy N-methylcarbamoyl) glutathione ([4]; 36 h): 1.83 mM
Extracellular [35S] S-(N-hydroxy N-methylcarbamoyl) glutathione glycyl-O-ethyl ester ([4]; 36 h): 6.01 mM
Intracellular Total 35S species ([4]; 36 h): 0.45 mM
Intracellular [35S] S-(N-hydroxy N-methylcarbamoyl) glutathione ([4]; 36 h): 0.14 mM
Intracellular [35S] S-(N-hydroxy N-methylcarbamoyl) glutathione glycyl-O-ethyl ester ([4]; 36 h): 0.28 mM
Extracellular Total 35S species ([4]; 48 h): 7.90 mM
Extracellular [35S] S-(N-hydroxy N-methylcarbamoyl) glutathione ([4]; 48 h): 1.89 mM
Extracellular [35S] S-(N-hydroxy N-methylcarbamoyl) glutathione glycyl-O-ethyl ester ([4]; 48 h): 5.70 mM
Intracellular Total 35S species ([4]; 48 h): 0.67 mM
Intracellular [35S] S-(N-hydroxy N-methylcarbamoyl) glutathione ([4]; 48 h): 0.24 mM
Intracellular [35S] S-(N-hydroxy N-methylcarbamoyl) glutathione glycyl-O-ethyl ester ([4]; 48 h): 0.39 mM
final intracellular [35S] 2 relative to that expected from import of contaminating [35S] 2 ([4]; 48 h): about 3 fold
Extracellular [35S] S-(N-hydroxy N-methylcarbamoyl) glutathione ([4]; 48 h, listed as [^35 S] 2(Et)): 1.9 mM

CN(O)C(=O)SC[C@H](NC(=O)CC[C@H](N)C(=O)O)C(=O)NCC(=O)O [[^35 S] .circle-solid., [^35 S] S-(N-Hydroxy N-Methylcarbamoyl) Glutathione]
Extracellular Total 35S species ([4]; 0 h): 8.44 mM
Extracellular [35S] GSH + [35S] GSSG ([4]; 0 h): ~ 0.01 mM
Extracellular [35S] S-(N-hydroxy N-methylcarbamoyl) glutathione ([4]; 0 h): 8.20 mM
Intracellular Total 35S species [4, 6]: ~ 0 mM
Extracellular Total 35S species ([4]; 6 h): 8.57 mM
Extracellular [35S] GSH + [35S] GSSG ([4]; 6 h): 0.15 mM
Extracellular [35S] S-(N-hydroxy N-methylcarbamoyl) glutathione ([4]; 6 h): 8.32 mM
Intracellular Total 35S species ([4]; 6 h): 0.02 mM
Extracellular Total 35S species ([4]; 12 h): 8.67 mM
Extracellular [35S] GSH + [35S] GSSG ([4]; 12 h): 0.14 mM
Extracellular [35S] S-(N-hydroxy N-methylcarbamoyl) glutathione ([4]; 12 h): 8.39 mM
Intracellular Total 35S species ([4]; 12 h): 0.03 mM
Intracellular [35S] GSH + [35S] GSSG ([4]; 12 h): ~ 0.01 mM
Intracellular [35S] S-(N-hydroxy N-methylcarbamoyl) glutathione ([4]; 12 h): ~ 0.01 mM
Extracellular Total 35S species ([4]; 24 h): 8.24 mM
Extracellular [35S] GSH + [35S] GSSG ([4]; 24 h): 0.14 mM
Extracellular [35S] S-(N-hydroxy N-methylcarbamoyl) glutathione ([4]; 24 h): 7.96 mM
Intracellular Total 35S species ([4]; 24 h): 0.12 mM
Intracellular [35S] GSH + [35S] GSSG ([4]; 24 h): 0.03 mM
Intracellular [35S] S-(N-hydroxy N-methylcarbamoyl) glutathione ([4]; 24 h): 0.08 mM
Extracellular Total 35S species ([4]; 36 h): 8.24 mM
Extracellular [35S] GSH + [35S] GSSG ([4]; 36 h): 0.13 mM
Extracellular [35S] S-(N-hydroxy N-methylcarbamoyl) glutathione ([4]; 36 h): 7.96 mM
Intracellular Total 35S species ([4]; 36 h): 0.31 mM
Intracellular [35S] GSH + [35S] GSSG ([4]; 36 h): 0.04 mM
Intracellular [35S] S-(N-hydroxy N-methylcarbamoyl) glutathione ([4]; 36 h): 0.26 mM
Extracellular Total 35S species ([4]; 48 h): 8.50 mM
Extracellular [35S] GSH + [35S] GSSG ([4]; 48 h): 0.14 mM
Extracellular [35S] S-(N-hydroxy N-methylcarbamoyl) glutathione ([4]; 48 h): 8.19 mM
Intracellular Total 35S species ([4]; 48 h): 0.44 mM
Intracellular [35S] GSH + [35S] GSSG ([4]; 48 h): 0.04 mM
Intracellular [35S] S-(N-hydroxy N-methylcarbamoyl) glutathione ([4]; 48 h): 0.37 mM

N[C@@H](CCC(=O)N[C@@H](C[35SH])C(=O)NCC(=O)O)C(=O)O [[^35 S] GSH, reference compound]
Extracellular Total 35S species ([4]; 0 h): 8.48 mM
Extracellular [35S] GSH ([4]; 0 h): 7.95 mM
Extracellular [35S] GSSG ([4]; 0 h): 0.43 mM
Intracellular Total 35S species [4, 6]: ~ 0 mM
Extracellular Total 35S species ([4]; 6 h): 8.56 mM
Extracellular [35S] GSH ([4]; 6 h): 7.90 mM
Extracellular [35S] GSSG ([4]; 6 h): 0.53 mM
Intracellular Total 35S species ([4]; 6 h): 0.04 mM
Intracellular [35S] GSH ([4]; 6 h): 0.02 mM
Intracellular [35S] GSSG ([4]; 6 h): 0.02 mM
Extracellular Total 35S species ([4]; 12 h): 8.61 mM
Intracellular Total 35S species ([4]; 12 h): 0.05 mM
Extracellular Total 35S species ([4]; 24 h): 8.38 mM
Intracellular Total 35S species ([4]; 24 h): 0.13 mM
Extracellular Total 35S species ([4]; 36 h): 8.37 mM
Intracellular Total 35S species ([4]; 36 h): 0.28 mM
Extracellular Total 35S species ([4]; 48 h): 8.23 mM
Extracellular [35S] GSH ([4]; 48 h): 5.31 mM
Extracellular [35S] GSSG ([4]; 48 h): 2.49 mM
Intracellular Total 35S species ([4]; 48 h): 0.48 mM
Intracellular [35S] GSH ([4]; 48 h): 0.10 mM
Intracellular [35S] GSSG ([4]; 48 h): 0.27 mM
